Our source for the EC50 and activation values is patent publication US10844017B2, “Biaryl compound, preparation method and use thereof” (FUDAN UNIVERSITY, priority 2017, dated 2020).

Where only a bound is given, the exact number is not on record here.

For the first test, the target named is T1, RORγ receptor (B-RORγ LBD / Bioin-SRC1) (Homo sapiens, UniProt P51449).
T1 construct: 40 nM B-RORγ LBD solution
T1 sequence (P51449 269-508 limits assumed): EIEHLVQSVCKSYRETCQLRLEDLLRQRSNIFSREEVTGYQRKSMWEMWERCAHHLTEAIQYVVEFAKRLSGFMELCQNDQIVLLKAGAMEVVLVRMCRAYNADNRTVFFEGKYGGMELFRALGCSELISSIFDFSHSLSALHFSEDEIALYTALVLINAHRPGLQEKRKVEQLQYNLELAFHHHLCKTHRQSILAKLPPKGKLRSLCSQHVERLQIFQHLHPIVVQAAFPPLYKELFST
T1 sequence (Q15788 676-700 partner limits assumed): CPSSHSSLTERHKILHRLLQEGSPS
Briefly: Determination of agonistic activities on RORγ receptors in vitro (dual FRET). Type of test: biochemical. The note with it: average of at least two independent experiments. How it is done: Determination of Agonistic Activities of Compounds on RORγ Receptors In Vitro The agonistic activities of compounds described herein on RORγ receptor were determined by dual fluorescence resonance energy transfer (dual FRET) experiments. The agonistic activity was expressed by half maximum effect concentration (EC50).
1) Preparation of RORγ Assay Buffer
100 mL of buffer solution was well mixed with […] DTT for use.
2) Preparation of Solutions of Compounds
3) Preparation of protein mixtures a) 40 nM B-RORγ LBD solution was mixed well with 20 nM SA-APC solution and incubated for 15 minutes at room temperature. Then the resulting mixture was further mixed well with 400 nM Biotin and incubated for another 10 minutes at room temperature. […]
b) 40 nM Bioin-SRC1 solution was mixed well with 10 nM SA-eu solution and was incubated for 15 minutes at room temperature. Then the resulting mixture was further mixed well with 200 nM Biotin and was incubated for another 10 minutes at room temperature. […]
d) A mixture (25 μL) of B-RORγ LBD/SA-APC and Bioin-SRC1/SA-eu together with a test compound was added to one of the wells of a 384-well plate, and then the plate was centrifuged for one minute at 1000 rpm, and incubated at room temperature for one hour. The data were read on an Envision microplate detector and EC50 values were calculated.
For the compound `CC(C)Cc1ccc(-c2c(Cl)cc(NC(=O)C3CCCCC3)cc2Cl)cc1C#N` [Example 2, N-(2,6-Dichloro-3′-cyano-4′-isobutyl-[1,1′-biphenyl]-4-yl)cyclohexanecarboxamide], the EC50 lay within 10 to 50 nM. Same read-out and setting: as for `CC(C)Cc1ccc(-c2c(Cl)cc(NC(=O)CC3CCCCC3)cc2Cl)cc1C#N` [Example 5, (2-Cyclohexyl-N-(2,6-dichloro-3′-cyano-4′-isobutyl-[1,1′-biphenyl]-4-yl)acetamide)], the figure is 10 to 50 nM.

`CC(C)Cc1ccc(-c2c(Cl)cc(NC(=O)CC3CCOCC3)cc2Cl)cc1C#N` [Example 6, N-(2,6-Dichloro-3′-cyano-4′-isobutyl-[1,1′-biphenyl]-4-yl)-2-(tetrahydro-2H-pyran-4-yl) acetamide] returned an EC50 of 10 to 50 nM. Compound `CC(C)Cc1ccc(-c2c(Cl)cc(NC(=O)Cc3ccn(C)n3)cc2Cl)cc1C#N` [Example 9A, N-(2,6-Dichloro-3′-cyano-4′-isobutyl-[1,1′-biphenyl]-4-yl)-2-(1-methyl-1H-pyrazol-3-yl)acetamide] registered a concentration for a half-maximal effect (EC50) of 10 to 50 nM. The same measure, in the same setting: as for `CCS(=O)(=O)c1ccc(CC(=O)Nc2cc(Cl)c(-c3ccc(CC(C)C)c(F)c3)c(Cl)c2)cc1` [Example 27, N-(2,6-Dichloro-3′-fluoro-4′-isobutyl-[1,1′-biphenyl]-4-yl)-2-(4-(ethylsulfonyl)phenyl)acetamide], the figure is 10 to 50 nM; as for `CCS(=O)(=O)c1ccc(CC(=O)Nc2cc(Cl)c(-c3ccc(CC(C)C)cc3C#N)c(Cl)c2)cc1` [Example 28, N-(2,6-dichloro-2′-cyano-4′-isobutyl-[1,1′-biphenyl]-4-yl)-2-(4-(ethylsulfonyl)phenyl)acetamide], 10 to 50 nM; as for `CCS(=O)(=O)c1ccc(CC(=O)Nc2ccc(-c3ccc(CC(C)C)cc3C(F)(F)F)c(Cl)c2)cc1` [Example 29, N-(2-chloro-4′-isobutyl-2′-(trifluoromethyl)-[1,1′-biphenyl]-4-yl)-2-(4-(ethylsulfonyl)phenyl)acetamide], 10 to 50 nM. On the same count and under the same terms, then `CCS(=O)(=O)c1ccc(CC(=O)Nc2ccc(-c3ccc(CC(C)C)cc3OC(F)(F)F)c(Cl)c2)cc1` [Example 30, N-(2-Chloro-4′-isobutyl-2′-(trifluoromethoxy)-[1,1′-biphenyl]-4-yl)-2-(4-(ethylsulfonyl)phenyl)acetamide], with 10 to 50 nM; and `CCS(=O)(=O)c1ccc(CC(=O)Nc2ccc(-c3ccc(CC(C)C)c(C#N)c3)c(Cl)c2)cc1` [Example 31, N-(2-Chloro-3′-cyano-4′-isobutyl-[1,1′-biphenyl]-4-yl)-2-(4-(ethylsulfonyl)phenyl)acetamide], with less than 10 nM; and `CCS(=O)(=O)c1ccc(CC(=O)Nc2cc(Cl)c(-c3ccc(CN4CCC4)c(C#N)c3)c(Cl)c2)cc1` [Example 38, N-(4′-(Azetidin-1-ylmethyl)-2,6-dichloro-3′-cyano-[1,1′-biphenyl]-4-yl)-2-(4-(ethylsulfonyl)phenyl)acetamide], with more than 1000 nM. On the same count and under the same terms, then `CCS(=O)(=O)c1ccc(CC(=O)Nc2cc(Cl)c(-c3ccc(CN4CCCC4)c(C#N)c3)c(Cl)c2)cc1` [Example 39, N-(2,6-Dichloro-3′-cyano-4′-(pyrrolidin-1-ylmethyl)-[1,1′-biphenyl]-4-yl)-2-(4-(ethylsulfonyl)phenyl)acetamide], with 10 to 50 nM. `CCS(=O)(=O)c1ccc(CC(=O)Nc2cc(Cl)c(-c3ccc(C=C4CCC4)c(C#N)c3)c(Cl)c2)cc1` [Example 44, N-(2,6-Dichloro-3′-cyano-4′-(cyclobutylidenemethyl)-[1,1′-biphenyl]-4-yl)-2-(4-(ethylsulfonyl)phenyl)acetamide] registered a concentration for a half-maximal effect (EC50) of 10 to 50 nM. On the same count and under the same terms, as for `CCS(=O)(=O)c1ccc(CC(=O)Nc2cc(Cl)c(-c3ccc(CC4CCCC4)c(C#N)c3)c(Cl)c2)cc1` [Example 45, N-(2,6-Dichloro-3′-cyano-4′-(cyclopentylmethyl)-[1,1′-biphenyl]-4-yl)-2-(4-(ethylsulfonyl)phenyl)acetamide], the figure is 10 to 50 nM; as for `CC(C)Cc1ccc(-c2c(Cl)cc(C(=O)NCc3ccc(S(C)(=O)=O)cc3)cc2Cl)cc1C#N` [Example 48, 2,6-Dichloro-3′-cyano-4′-isobutyl-N-(4-(methylsulfonyl)benzyl)-[1,1′-biphenyl]-4-carboxamide], 50 to 100 nM; as for `CC(C)Cc1ccc(-c2c(Cl)cc(C(=O)NCc3ccc(S(C)(=O)=O)cn3)cc2Cl)cc1C#N` [Example 50, 2,6-Dichloro-3′-cyano-4′-isobutyl-N-((5-(methylsulfonyl)pyridin-2-yl)methyl)-[1,1′-biphenyl]-4-carboxamide], 50 to 100 nM. Regarding `CCS(=O)(=O)c1ccc(CNC(=O)c2cc(Cl)c(-c3ccc(CN(C)C)c(C#N)c3)c(Cl)c2)cc1` [Example 51, 2,6-Dichloro-3′-cyano-4′-((dimethylamino)methyl)-N-(4-(ethylsulfonyl)benzyl)-[1,1′-biphenyl]-4-carboxamide], the EC50 lay in the range of 100 to 500 nM. Still for that read-out and setting: as for `CN(C)Cc1ccc(-c2c(Cl)cc(C(=O)NCc3ccc(S(C)(=O)=O)cc3)cc2Cl)cc1C#N` [Example 52, 2,6-Dichloro-3′-cyano-4′-((dimethylamino)methyl)-N-(4-(methylsulfonyl)benzyl)-[1,1′-biphenyl]-4-carboxamide], the figure is 500 to 1000 nM; as for `CC(C)Cc1ccc(-c2c(Cl)cc(NC(=O)NCc3ccc(S(C)(=O)=O)cc3)cc2Cl)cc1C#N` [Example 54, 1-(2,6-Dichloro-3′-cyano-4′-isobutyl-[1,1′-biphenyl]-4-yl)-3-(4-(methylsulfonyl)benzyl)urea], 10 to 50 nM; as for `CC(C)Cc1ccc(-c2c(Cl)cc(NC(=O)NCc3ccc(S(C)(=O)=O)cn3)cc2Cl)cc1C#N` [Example 56, 1-(2,6-Dichloro-3′-cyano-4′-isobutyl-[1,1′-biphenyl]-4-yl)-3-((5-(methylsulfonyl)pyridin-2-yl)methyl)urea], 10 to 50 nM. Still for that read-out and setting: then `CC(C)Cc1ccc(-c2c(Cl)cc(NC(=O)NCc3ccc(CC(=O)O)cc3)cc2Cl)cc1C#N` [Example 57, 2-(4-((3-(2,6-Dichloro-3′-cyano-4′-isobutyl-[1,1′-biphenyl]-4-yl)ureido)methyl)phenyl)acetic acid], with 10 to 50 nM; and `CN(C)Cc1ccc(-c2c(Cl)cc(NC(=O)NCc3ccc(S(C)(=O)=O)cc3)cc2Cl)cc1C#N` [Example 59, 1-(2,6-Dichloro-3′-cyano-4′-((dimethylamino)methyl)-[1,1′-biphenyl]-4-yl)-3-(4-(methylsulfonyl)benzyl)urea], with 10 to 50 nM; and `CC(C)Cc1ccc(-c2c(Cl)cc(NCCc3ccc(S(C)(=O)=O)cc3)cc2Cl)cc1C#N` [Example 61, 2′,6′-Dichloro-4-isobutyl-4′-((4-(methylsulfonyl)phenethyl)amino)-[1,1′-biphenyl]-3-carbonitrile], with 10 to 50 nM. The same measure, in the same setting: as for `CN(C)Cc1ccc(-c2c(Cl)cc(NCCc3ccc(S(C)(=O)=O)cc3)cc2Cl)cc1C#N` [Example 63, 2′,6′-Dichloro-4-((dimethylamino)methyl)-4′-((4-(methylsulfonyl)phenethyl)amino)-[1,1′-biphenyl]-3-carbonitrile], the figure is less than 10 nM.

The test system of a further test is Mouse lymphoma EL4 cells transfected with RORγt plasmid. Briefly: Determination of the activation rate on mouse lymphoma EL4 (IL-17 generation). In kind it is cell-based. To be noted: compound at 2 μM, 24 hours, PMA/ionomycin stimulation 4 hours, flow cytometry, read-out: +act % (activation of IL-17 generated by EL4 cells). How it is done: Determination of the Activation Rate on Mouse Lymphoma EL4
Mouse lymphoma EL4 cells transfected with RORγt plasmid were cultured at 37° C. under an atmosphere with 5% CO2, with a test compound added simultaneously. After 24 hours, the generation efficiency of IL-17A was analyzed. Before collection of cells, PMA at 50 ng/mL and ionomycin at 500 ng/mL were added for stimulation for 4 hours. The proportion of IL-17 was detected by intracellular staining and flow cytometry. […] The activation rate of IL-17 generated by EL4 cells for the compound was measured at a concentration of 2 μM.
In the case of `CC(C)Cc1ccc(-c2c(Cl)cc(NC(=O)C3CCCCC3)cc2Cl)cc1C#N` [Example 2, N-(2,6-Dichloro-3′-cyano-4′-isobutyl-[1,1′-biphenyl]-4-yl)cyclohexanecarboxamide], the activation at 2 µM is 20 to 50%.

For the compound `CC(C)Cc1ccc(-c2c(Cl)cc(NC(=O)CC3CCCCC3)cc2Cl)cc1C#N` [Example 5, (2-Cyclohexyl-N-(2,6-dichloro-3′-cyano-4′-isobutyl-[1,1′-biphenyl]-4-yl)acetamide)], the activation at 2 µM was less than 20%. The same measure, in the same setting: then `CC(C)Cc1ccc(-c2c(Cl)cc(NC(=O)CC3CCOCC3)cc2Cl)cc1C#N` [Example 6, N-(2,6-Dichloro-3′-cyano-4′-isobutyl-[1,1′-biphenyl]-4-yl)-2-(tetrahydro-2H-pyran-4-yl) acetamide], with 20 to 50%; and `CC(C)Cc1ccc(-c2c(Cl)cc(NC(=O)Cc3ccn(C)n3)cc2Cl)cc1C#N` [Example 9A, N-(2,6-Dichloro-3′-cyano-4′-isobutyl-[1,1′-biphenyl]-4-yl)-2-(1-methyl-1H-pyrazol-3-yl)acetamide], with less than 20%; and `CCS(=O)(=O)c1ccc(CC(=O)Nc2cc(Cl)c(-c3ccc(CN(C)C)c(C#N)c3)c(Cl)c2)cc1` [Example 35, N-(2,6-Dichloro-3′-cyano-4′-((dimethylamino)methyl)-[1,1′-biphenyl]-4-yl)-2-(4-(ethylsulfonyl)phenyl)acetamide], with more than 50%. Same read-out and setting: as for `CCS(=O)(=O)c1ccc(CC(=O)Nc2cc(Cl)c(-c3ccc(C=C(C)C)c(C#N)c3)c(Cl)c2)cc1` [Example 40, N-(2,6-Dichloro-3′-cyano-4′-(2-methylprop-1-en-1-yl)-[1,1′-biphenyl]-4-yl)-2-(4-(ethylsulfonyl)phenyl)acetamide], the figure is more than 50%; as for `CCS(=O)(=O)c1ccc(CNC(=O)c2cc(Cl)c(-c3ccc(CC(C)C)c(C#N)c3)c(Cl)c2)cc1` [Example 47], less than 20%.

For the compound `CCS(=O)(=O)c1ccc(CNC(=O)Nc2cc(Cl)c(-c3ccc(CC(C)C)c(C#N)c3)c(Cl)c2)cc1` [Example 53, 1-(2,6-Dichloro-3′-cyano-4′-isobutyl-[1,1′-biphenyl]-4-yl)-3-(4-(ethylsulfonyl)benzyl)urea], the activation at 2 µM is 20 to 50%.
